# Source: patent publication EP4389749A1, “SUBSTITUTED 3,7-DIHYDRO-1H-PURINE-2,6-DIONES AND USE THEREOF” (invIOs GmbH, priority 2022, dated 2024)
# Legend:
# [1] = test system: CD4+ T-cells; assay: Immunostimulation assay with anti-CD3/28 stimulated T-cells, CD69 expression by flow cytometry; assay type: cell-based, human; conditions: T-cell; purified human CD4+ and CD8+ T-cells, 1 µg/ml anti-CD3, 1 µg/ml anti-CD28, 16 hours, surface FACS; read-out: EC50 CD4+
# Procedure: (§1) Selection of potent compounds based on structure activity relation (SAR) using human, anti-CD3/28 stimulated T-cells. Enhanced activation of stimulated T-cells is measured by CD69 expression by flowcytometry.
# (§2) White blood cell enriched buffy coats were ordered from the Austrian red cross, diluted with PBS to a total volume of 480 ml, 30 ml transferred to 50ml falcons and 11 ml lymphoprep added. Cell suspensions were centrifuged for 20 min at 2200 rpm and the PBMC containing layer transferred, three times washed with PBS and counted.
# (§3) 10^7 PBMCs were magnetically labeled with CD4 and CD8 microbeads according to manufacturer's instructions and separated using autoMACS device. For dose response experiments with purified CD4+CD8+ T-cells 80000 cells were seeded per 96-well flat bottom cell culture dish.
# (§4) 10 mM compounds of the invention stocks were further diluted using DMSO and equal amounts transferred to T-cell containing 96-wells. Final concentrations tested were: 30 µM, 10 µM, 3 µM, 1 µM, 0.3 µM, 0.1 µM, 0.03 µM, 0.01 µM, 0.003 µM and 0.001 µM.
# (§5) For the stimulation assays 80.000 purified CD4+ and CD8+ T-cells were seeded per 96-well and incubated with 1 µg/ml anti-CD3, 1 µg/ml anti-CD28 and compounds of the invention ranging from 0.001 µM to 30 µM. DMSO only wells served as control to determine minimal T-cell activation upon stimulation and CD3/28 coupled Dynabeads were used to determine the maximal activation of T-cells. Cells were cultured for 16 hours in a humidified incubator at 37 °C and 5 % CO2.
# (§6) T-cells were stained for surface antigens (anti-CD4 and anti-CD8) and cell activation markers (anti-CD25 and anti-CD69). Additionally, a fixable viability dye was used to stain viable cells. Staining was performed for 15 minutes and cells analyzed using a Fortessa flow cytometer and FlowJo Software. EC50s were calculated using GraphPad Prism® and a variable slope model (agonist vs. response - variable slope).
# [2] = test system: CD8+ T-cells; assay: as above; assay type: cell-based, human; conditions: T-cell; purified human CD4+ and CD8+ T-cells, 1 µg/ml anti-CD3, 1 µg/ml anti-CD28, 16 hours, surface FACS; read-out: EC50 CD8+
# Procedure: as §1, §2, §3, §4, §5, §6
Compound,EC50 [1] [nM],EC50 [2] [nM]
"CC(CO)Cn1c(=O)[nH]c(=O)c2c1nc(-c1ccc(Oc3ccc(OC(F)(F)F)cc3)cc1)n2C (centres unmarked) [Compound 100, 3-(3-hydroxy-2-methylpropyl)-7-methyl-8-(4-(4-(trifluoromethoxy)phenoxy)phenyl)-3,7-dihydro-1H-purine-2,6-dione]",100 to 500,100 to 500
"COc1cc(-c2nc3c(c(=O)[nH]c(=O)n3CC(C)O)n2C)ccc1OCc1cccc2ccncc12 (centres unmarked) [Compound 101, 3-(2-hydroxypropyl)-8-(4-(isoquinolin-8-ylmethoxy)-3-methoxyphenyl)-7-methyl-3,7-dihydro-1H-purine-2,6-dione]",100 to 500,100 to 500
"Cc1ccc(COc2ccc(-c3nc4c(c(=O)[nH]c(=O)n4CC(O)C(F)(F)F)n3C)cc2F)cc1 (centres unmarked) [Compound 102, 8-(3-fluoro-4-((4-methylbenzyl)oxy)phenyl)-7-methyl-3-(3,3,3-trifluoro-2-hydroxypropyl)-3,7-dihydro-1H-purine-2,6-dione]",< 100,100 to 500
"COc1cc(-c2nc3c(c(=O)[nH]c(=O)n3CC(C)O)n2C)ccc1OCc1cccc2ncccc12 (centres unmarked) [Compound 113, 3-(2-hydroxypropyl)-8-(3-methoxy-4-(quinolin-5-ylmethoxy)phenyl)-7-methyl-3,7-dihydro-1H-purine-2,6-dione]",500 to 1000,1000 to 5000
"COc1ccc(COc2ccc(-c3nc4c(c(=O)[nH]c(=O)n4CC(C)O)n3C)cc2F)cc1 (centres unmarked) [Compound 114, 8-(3-fluoro-4-((4-methoxybenzyl)oxy)phenyl)-3-(2-hydroxypropyl)-7-methyl-3,7-dihydro-1H-purine-2,6-dione]",1000 to 5000,1000 to 5000
"Cc1ccc(COc2ccc(-c3nc4c(c(=O)[nH]c(=O)n4CC(C)O)n3C)cc2F)cc1 (centres unmarked) [Compound 115, 8-(3-fluoro-4-((4-methylbenzyl)oxy)phenyl)-3-(2-hydroxypropyl)-7-methyl-3,7-dihydro-1H-purine-2,6-dione]",500 to 1000,500 to 1000
"Cn1c(-c2ccc(OCc3ccccc3)c(OC(F)(F)F)c2)nc2c1c(=O)[nH]c(=O)n2CC(O)CO (centres unmarked) [Compound 116, 8-(4-(benzyloxy)-3-(trifluoromethoxy)phenyl)-3-(2,3-dihydroxypropyl)-7-methyl-3,7-dihydro-1H-purine-2,6-dione]",500 to 1000,500 to 1000
"Cn1c(-c2ccc(OCc3ccccc3)c(OC(F)(F)F)c2)nc2c1c(=O)[nH]c(=O)n2CC(O)CF (centres unmarked) [Compound 117, 8-(4-(benzyloxy)-3-(trifluoromethoxy)phenyl)-3-(3-fluoro-2-hydroxypropyl)-7-methyl-3,7-dihydro-1H-purine-2,6-dione]",< 100,< 100
"CC(CO)Cn1c(=O)[nH]c(=O)c2c1nc(-c1ccc(OCc3ccccc3)c(OC(F)(F)F)c1)n2C (centres unmarked) [Compound 118, 8-(4-(benzyloxy)-3-(trifluoromethoxy)phenyl)-3-(3-hydroxy-2-methylpropyl)-7-methyl-3,7-dihydro-1H-purine-2,6-dione]",< 100,100 to 500
"Cn1c(-c2ccc(OCc3ccccc3)c(OC(F)(F)F)c2)nc2c1c(=O)[nH]c(=O)n2CC(O)C(F)(F)F (centres unmarked) [Compound 119, 8-(4-(benzyloxy)-3-(trifluoromethoxy)phenyl)-7-methyl-3-(3,3,3-trifluoro-2-hydroxypropyl)-3,7-dihydro-1H-purine-2,6-dione]",< 100,< 100
"CC(O)Cn1c(=O)[nH]c(=O)c2c1nc(-c1ccc(OCc3ccccc3)c(OC(F)(F)F)c1)n2C (centres unmarked) [Compound 120, 8-(4-(benzyloxy)-3-(trifluoromethoxy)phenyl)-3-(2-hydroxypropyl)-7-methyl-3,7-dihydro-1H-purine-2,6-dione]",100 to 500,100 to 500
"COc1cc(-c2nc3c(c(=O)[nH]c(=O)n3CC(O)C(F)(F)F)n2C)ccc1OCc1ccc(C)cc1 (centres unmarked) [Compound 121, 8-(3-methoxy-4-((4-methylbenzyl)oxy)phenyl)-7-methyl-3-(3,3,3-trifluoro-2-hydroxypropyl)-3,7-dihydro-1H-purine-2,6-dione]",< 100,< 100
"Cc1ccc(COc2ccc(-c3nc4c(c(=O)[nH]c(=O)n4CC(C)O)n3C)cc2OC(F)(F)F)cc1 (centres unmarked) [Compound 122, 3-(2-hydroxypropyl)-7-methyl-8-(4-((4-methylbenzyl)oxy)-3-(trifluoromethoxy)phenyl)-3,7-dihydro-1H-purine-2,6-dione]",< 100,< 100
"Cc1ccc(COc2ccc(-c3nc4c(c(=O)[nH]c(=O)n4CC(C)O)n3C)cc2C(F)(F)F)cc1 (centres unmarked) [Compound 123, 3-(2-hydroxypropyl)-7-methyl-8-(4-((4-methylbenzyl)oxy)-3-(trifluoromethyl)phenyl)-3,7-dihydro-1H-purine-2,6-dione]",< 100,< 100
"Cc1cc(-c2nc3c(c(=O)[nH]c(=O)n3CC(C)O)n2C)ccc1OCc1ccccc1 (centres unmarked) [Compound 124, 8-(4-(benzyloxy)-3-methylphenyl)-3-(2-hydroxypropyl)-7-methyl-3,7-dihydro-1H-purine-2,6-dione]",100 to 500,100 to 500
"COc1cc(-c2nc3c(c(=O)[nH]c(=O)n3CC(C)O)n2C)ccc1OCc1ccc(C)cc1 (centres unmarked) [Compound 125, 3-(2-hydroxypropyl)-8-(3-methoxy-4-((4-methylbenzyl)oxy)phenyl)-7-methyl-3,7-dihydro-1H-purine-2,6-dione]",100 to 500,100 to 500
"COc1ccc(COc2ccc(-c3nc4c(c(=O)[nH]c(=O)n4CC(C)O)n3C)cc2OC)cc1F (centres unmarked) [Compound 126, 8-(4-((3-fluoro-4-methoxybenzyl)oxy)-3-methoxyphenyl)-3-(2-hydroxypropyl)-7-methyl-3,7-dihydro-1H-purine-2,6-dione]",500 to 1000,100 to 500
"COc1cc(COc2ccc(-c3nc4c(c(=O)[nH]c(=O)n4CC(C)O)n3C)cc2OC)ccc1F (centres unmarked) [Compound 127, 8-(4-((4-fluoro-3-methoxybenzyl)oxy)-3-methoxyphenyl)-3-(2-hydroxypropyl)-7-methyl-3,7-dihydro-1H-purine-2,6-dione]",500 to 1000,500 to 1000
"COc1ccc(COc2ccc(-c3nc4c(c(=O)[nH]c(=O)n4CC(C)O)n3C)cc2OC)cc1 (centres unmarked) [Compound 128, 3-(2-hydroxypropyl)-8-(3-methoxy-4-((4-methoxybenzyl)oxy)phenyl)-7-methyl-3,7-dihydro-1H-purine-2,6-dione]",1000 to 5000,1000 to 5000
"CC(O)Cn1c(=O)[nH]c(=O)c2c1nc(-c1ccc(Oc3ccc(C(F)(F)F)cc3)cc1)n2C (centres unmarked) [Compound 136, 3-(2-hydroxypropyl)-7-methyl-8-(4-(4-(trifluoromethyl)phenoxy)phenyl)-3,7-dihydro-1H-purine-2,6-dione]",1000 to 5000,1000 to 5000
"CC(O)Cn1c(=O)[nH]c(=O)c2c1nc(-c1ccc(Oc3ccc(Cl)cc3)cc1)n2C (centres unmarked) [Compound 138, 8-(4-(4-chlorophenoxy)phenyl)-3-(2-hydroxypropyl)-7-methyl-3,7-dihydro-1H-purine-2,6-dione]",1000 to 5000,1000 to 5000
"CC(O)Cn1c(=O)[nH]c(=O)c2c1nc(-c1ccc(Oc3ccccc3)c(Cl)c1)n2C (centres unmarked) [Compound 141, 8-(3-chloro-4-phenoxyphenyl)-3-(2-hydroxypropyl)-7-methyl-3,7-dihydro-1H-purine-2,6-dione]",1000 to 5000,1000 to 5000
